Source: US10183021B2, “sGC stimulators” (Ironwood Pharmaceuticals, Inc., priority 2013, dated 2019)
Where two headings read alike, the source gives them in different places.

Target: soluble guanylate cyclase (sGC) (Homo sapiens (Human), UniProt Q02108+Q02153)
Assay: sGC-HEK-cGMP assay, new protocol with DETA-NONOate, LC/MS detection (Example 2C)
Type: cell-based
Conditions: read-out: Absolute EC50 (uM) - binned

Chain of soluble guanylate cyclase (sGC) (Q02153 whole entry): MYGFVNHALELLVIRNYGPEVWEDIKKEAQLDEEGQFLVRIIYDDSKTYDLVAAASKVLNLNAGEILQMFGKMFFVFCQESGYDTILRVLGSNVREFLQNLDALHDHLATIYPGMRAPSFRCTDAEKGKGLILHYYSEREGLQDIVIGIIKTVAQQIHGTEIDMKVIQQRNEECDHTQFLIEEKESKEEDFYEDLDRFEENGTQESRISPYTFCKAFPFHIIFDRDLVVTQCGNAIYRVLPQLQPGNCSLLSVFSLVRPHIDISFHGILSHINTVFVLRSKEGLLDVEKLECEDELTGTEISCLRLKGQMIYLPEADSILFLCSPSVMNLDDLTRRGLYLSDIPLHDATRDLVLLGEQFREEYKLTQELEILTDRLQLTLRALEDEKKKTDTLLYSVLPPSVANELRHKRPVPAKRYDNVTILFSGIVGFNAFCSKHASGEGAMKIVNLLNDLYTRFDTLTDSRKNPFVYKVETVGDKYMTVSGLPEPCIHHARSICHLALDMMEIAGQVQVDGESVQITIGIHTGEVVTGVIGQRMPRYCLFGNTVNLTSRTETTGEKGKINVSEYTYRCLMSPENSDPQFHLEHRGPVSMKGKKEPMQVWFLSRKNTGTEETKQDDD
Chain of soluble guanylate cyclase (sGC) (Q02108 whole entry): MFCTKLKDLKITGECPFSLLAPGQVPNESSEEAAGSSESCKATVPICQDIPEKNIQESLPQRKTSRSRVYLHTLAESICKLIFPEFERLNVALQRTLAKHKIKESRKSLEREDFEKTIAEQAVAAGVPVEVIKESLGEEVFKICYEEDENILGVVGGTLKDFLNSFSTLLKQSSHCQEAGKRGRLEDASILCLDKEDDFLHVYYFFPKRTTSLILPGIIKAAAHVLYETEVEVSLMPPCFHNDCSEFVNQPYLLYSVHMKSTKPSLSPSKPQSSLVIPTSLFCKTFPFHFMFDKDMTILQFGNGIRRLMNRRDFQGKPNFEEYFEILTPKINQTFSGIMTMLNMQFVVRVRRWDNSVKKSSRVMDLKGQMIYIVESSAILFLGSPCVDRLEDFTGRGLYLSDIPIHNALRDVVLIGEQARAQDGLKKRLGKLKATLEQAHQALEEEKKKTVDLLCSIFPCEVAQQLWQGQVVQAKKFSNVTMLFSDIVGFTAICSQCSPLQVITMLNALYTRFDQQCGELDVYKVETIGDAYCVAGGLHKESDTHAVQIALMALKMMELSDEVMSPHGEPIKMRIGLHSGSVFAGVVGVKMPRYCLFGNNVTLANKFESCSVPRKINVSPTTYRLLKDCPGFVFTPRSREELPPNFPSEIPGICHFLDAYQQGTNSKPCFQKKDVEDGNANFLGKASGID

| SMILES | EC50 [µM] | EC50 (HEK293 cells, 10 μM DETA-NONOate, LC/MS detection, concentration eliciting 50% of high control response (30 μM I-329)) [µM] |
| --- | --- | --- |
| N#CC1(C(=O)Nc2ccnc(-c3cc(-c4ccon4)n(Cc4ccccc4F)n3)n2)CC1 [Compound I-551] | > 1 |  |
| O=C(Nc1ccnc(-c2cc(-c3ccon3)n(Cc3ccccc3F)n2)n1)c1cncs1 [Compound I-552] | > 1 |  |
| O=C(Nc1ccnc(-c2cc(-c3ccon3)n(Cc3ccccc3F)n2)n1)c1cccc(=O)[nH]1 [Compound I-553] | > 1 |  |
| COc1cc(C(=O)Nc2ccnc(-c3cc(-c4ccon4)n(Cc4ccccc4F)n3)n2)on1 [Compound I-554] | > 1 |  |
| O=C(Nc1ccnc(-c2cc(-c3ccon3)n(Cc3ccccc3F)n2)n1)c1ccncn1 [Compound I-555] | > 1 |  |
| O=C(Nc1ccnc(-c2cc(-c3ccon3)n(Cc3ccccc3F)n2)n1)c1cnco1 [Compound I-556] | > 1 |  |
| O=C(Nc1ccnc(-c2cc(-c3ccon3)n(Cc3ccccc3F)n2)n1)c1cocn1 [Compound I-557] |  | > 1 |
| O=C(Nc1ccnc(-c2cc(-c3ccon3)n(Cc3ccccc3F)n2)n1)C1CC1 [Compound I-558] | 0.101 to 1 |  |
| CO[C@H](C(=O)Nc1ccnc(-c2cc(-c3ccon3)n(Cc3ccccc3F)n2)n1)c1ccccc1 [Compound I-559] | 0.101 to 1 |  |
| O=C(Nc1ccnc(-c2cc(-c3ccon3)n(Cc3ccccc3F)n2)n1)c1ccco1 [Compound I-560] | > 1 |  |
| O=C(Nc1ccnc(-c2cc(-c3ccon3)n(Cc3ccccc3F)n2)n1)c1cccs1 [Compound I-561] | > 1 |  |
| CCOCC(=O)Nc1ccnc(-c2cc(-c3ccon3)n(Cc3ccccc3F)n2)n1 [Compound I-562] | 0.101 to 1 |  |
| CS(=O)(=O)CC(=O)Nc1ccnc(-c2cc(-c3ccon3)n(Cc3ccccc3F)n2)n1 [Compound I-563] | > 1 |  |
| O=C(Nc1ccnc(-c2cc(-c3ccon3)n(Cc3ccccc3F)n2)n1)c1cc(C2CC2)n[nH]1 [Compound I-564] | > 1 |  |
| CC(=O)OC(C(=O)Nc1ccnc(-c2cc(-c3ccon3)n(Cc3ccccc3F)n2)n1)c1ccccc1 (stereo not drawn) [Compound I-565] | 0.101 to 1 |  |
| O=C(CO)N(CC(F)(F)F)c1nc(-c2cc(-c3ccon3)n(Cc3ccccc3F)n2)ncc1F [Compound I-566] | 0.101 to 1 |  |
| Fc1ccccc1Cn1nc(-c2ncc(F)c(NCC3(c4ncc[nH]4)CC3)n2)cc1-c1ccon1 [Compound I-567] | > 1 |  |
| COC(=O)NCC(Nc1nc(-c2cc(-c3ccon3)n(Cc3ccccc3F)n2)ncc1F)C(F)(F)F (stereo not drawn) [Compound I-568] | < 0.1 |  |
| CC1(C(=O)Nc2ccnc(-c3cc(-c4ccon4)n(Cc4ccccc4F)n3)n2)CC1 [Compound I-569] | > 1 |  |
| O=C(Nc1ccnc(-c2cc(-c3ccon3)n(Cc3ccccc3F)n2)n1)C1CCCO1 (stereo not drawn) [Compound I-570] | 0.101 to 1 |  |
| Cc1cn(CC(=O)Nc2ccnc(-c3cc(-c4ccon4)n(Cc4ccccc4F)n3)n2)c(=O)[nH]c1=O [Compound I-571] | > 1 |  |
| COC(C(=O)Nc1ccnc(-c2cc(-c3ccon3)n(Cc3ccccc3F)n2)n1)(c1ccccc1)C(F)(F)F (stereo not drawn) [Compound I-572] | > 1 |  |
| CS(=O)(=O)CCC(=O)Nc1ccnc(-c2cc(-c3ccon3)n(Cc3ccccc3F)n2)n1 [Compound I-573] | 0.101 to 1 |  |
| O=C(Nc1ccnc(-c2cc(-c3ccon3)n(Cc3ccccc3F)n2)n1)C1CCOCC1 [Compound I-574] | 0.101 to 1 |  |

| SMILES | EC50 [µM] | EC50 (HEK293 cells, 10 μM DETA-NONOate, LC/MS detection, concentration eliciting 50% of high control response (30 μM I-329)) [µM] |
| --- | --- | --- |
| O=C1O[C@@H](CO)CN1c1nc(-c2cc(-c3ccon3)n(Cc3ccccc3F)n2)ncc1F [Compound I-575] | < 0.1 |  |
| C[C@H](O)C(=O)Nc1ccnc(-c2cc(-c3ccon3)n(Cc3ccccc3F)n2)n1 [Compound I-576] | 0.101 to 1 |  |
| O=C(Nc1ccnc(-c2cc(-c3ccon3)n(Cc3ccccc3F)n2)n1)c1ccccc1O [Compound I-577] | 0.101 to 1 |  |
| Fc1ccccc1Cn1nc(-c2ncc(F)c(NC3CCOC3)n2)cc1-c1ccon1 (stereo not drawn) [Compound I-578] | < 0.1 |  |
| N#CCC(=O)Nc1ccnc(-c2cc(-c3ccon3)n(Cc3ccccc3F)n2)n1 [Compound I-579] | > 1 |  |
| CC(C)(C(=O)Nc1ccnc(-c2cc(-c3ccon3)n(Cc3ccccc3F)n2)n1)S(C)(=O)=O [Compound I-580] | 0.101 to 1 |  |
| NC(=O)CCNc1nc(-c2cc(-c3ccon3)n(Cc3ccccc3F)n2)ncc1F [Compound I-581] | < 0.1 |  |
| CC(C)(C(=O)Nc1nc(-c2cc(-c3ccon3)n(Cc3ccccc3F)n2)ncc1F)S(C)(=O)=O [Compound I-582] | > 1 |  |
| O=C(Nc1ccccc1)Nc1ccnc(-c2cc(-c3ccon3)n(Cc3ccccc3F)n2)n1 [Compound I-583] | > 1 |  |
| NC(=O)NCC(=O)Nc1ccnc(-c2cc(-c3ccon3)n(Cc3ccccc3F)n2)n1 [Compound I-584] | > 1 |  |
| CC(C)NC(=O)NCC(=O)Nc1ccnc(-c2cc(-c3ccon3)n(Cc3ccccc3F)n2)n1 [Compound I-585] | 0.101 to 1 |  |
| CN(C)S(=O)(=O)NCC(=O)Nc1ccnc(-c2cc(-c3ccon3)n(Cc3ccccc3F)n2)n1 [Compound I-586] | 0.101 to 1 |  |
| CC(C(=O)Nc1ccnc(-c2cc(-c3ccon3)n(Cc3ccccc3F)n2)n1)S(C)(=O)=O (stereo not drawn) [Compound I-587] | 0.101 to 1 |  |
| CS(=O)(=O)CCC(Nc1nc(-c2cc(-c3ccon3)n(Cc3ccccc3F)n2)ncc1F)C(F)(F)F (stereo not drawn) [Compound I-588] | 0.101 to 1 |  |
| CC(C(=O)Nc1nc(-c2cc(-c3ccon3)n(Cc3ccccc3F)n2)ncc1F)S(C)(=O)=O (stereo not drawn) [Compound I-589] | 0.101 to 1 |  |
| NC(=O)C1CC(=O)N(c2nc(-c3cc(-c4ccon4)n(Cc4ccccc4F)n3)ncc2F)C1 (stereo not drawn) [Compound I-590] | > 1 |  |
| CCOC(=O)C1(C)CCN(c2nc(-c3cc(-c4ccon4)n(Cc4ccccc4F)n3)ncc2F)C1=O (stereo not drawn) [Compound I-591] | 0.101 to 1 |  |
| O=C(CS(=O)(=O)c1ccccc1)Nc1ccnc(-c2cc(-c3ccon3)n(Cc3ccccc3F)n2)n1 [Compound I-592] | > 1 |  |
| O=C(CS(=O)(=O)c1ccc(Cl)cc1)Nc1ccnc(-c2cc(-c3ccon3)n(Cc3ccccc3F)n2)n1 [Compound I-593] | > 1 |  |
| CC1(C(=O)Nc2ccnc(-c3cc(-c4ccon4)n(Cc4ccccc4F)n3)n2)Cc2ccccc2S1(=O)=O (stereo not drawn) [Compound I-594] | > 1 |  |
| O=S(=O)(CCC(F)(F)F)Nc1cnc(-c2cc(-c3ccon3)n(Cc3ccccc3F)n2)nc1 [Compound I-595] | 0.101 to 1 |  |
| O=C(CN1C(=O)c2ccccc2C1=O)Nc1ccnc(-c2cc(-c3ccon3)n(Cc3ccccc3F)n2)n1 [Compound I-596] | > 1 |  |
| O=C(Cc1ccccc1)NCC(=O)Nc1ccnc(-c2cc(-c3ccon3)n(Cc3ccccc3F)n2)n1 [Compound I-597] | > 1 |  |
| O=C(CNC(=O)OCc1ccccc1)Nc1ccnc(-c2cc(-c3ccon3)n(Cc3ccccc3F)n2)n1 [Compound I-598] | > 1 |  |

| SMILES | EC50 [µM] | EC50 (HEK293 cells, 10 μM DETA-NONOate, LC/MS detection, concentration eliciting 50% of high control response (30 μM I-329)) [µM] |
| --- | --- | --- |
| O=C(CN1Cc2ccccc2C1=O)Nc1ccnc(-c2cc(-c3ccon3)n(Cc3ccccc3F)n2)n1 [Compound I-599] | > 1 |  |
| O=C(CN1CCOC1=O)Nc1ccnc(-c2cc(-c3ccon3)n(Cc3ccccc3F)n2)n1 [Compound I-600] | 0.101 to 1 |  |
| O=C(Cn1cnc2ccccc2c1=O)Nc1ccnc(-c2cc(-c3ccon3)n(Cc3ccccc3F)n2)n1 [Compound I-601] | > 1 |  |
| O=C(CN1C(=O)c2ccccc2C1=O)NCC(=O)Nc1ccnc(-c2cc(-c3ccon3)n(Cc3ccccc3F)n2)n1 [Compound I-602] | > 1 |  |
| COC(=O)NCC(=O)Nc1ccnc(-c2cc(-c3ccon3)n(Cc3ccccc3F)n2)n1 [Compound I-603] | 0.101 to 1 |  |
| CC1(C(=O)O)CCN(c2nc(-c3cc(-c4ccon4)n(Cc4ccccc4F)n3)ncc2F)C1=O (stereo not drawn) [Compound I-604] | 0.101 to 1 |  |
| CC1(C(=O)NC2CC2)CCN(c2nc(-c3cc(-c4ccon4)n(Cc4ccccc4F)n3)ncc2F)C1=O (stereo not drawn) [Compound I-605] | 0.101 to 1 |  |
| CC1(C(N)=O)CCN(c2nc(-c3cc(-c4ccon4)n(Cc4ccccc4F)n3)ncc2F)C1=O (stereo not drawn) [Compound I-606] | 0.101 to 1 |  |
| O=S(=O)(Cc1ccc(F)cc1)Nc1nc(-c2cc(-c3ccon3)n(Cc3ccccc3F)n2)ncc1F [Compound I-607] | 0.101 to 1 |  |
| Fc1ccccc1Cn1nc(-c2ncc(F)c(NCc3nnc(C(F)(F)F)o3)n2)cc1-c1ccon1 [Compound I-608] | < 0.1 |  |
| O=S(=O)(CC(F)(F)F)Nc1nc(-c2cc(-c3ccon3)n(Cc3ccccc3F)n2)ncc1F [Compound I-609] | > 1 |  |
| O=S(=O)(Nc1nc(-c2cc(-c3ccon3)n(Cc3ccccc3F)n2)ncc1F)C1CC1 [Compound I-610] | 0.101 to 1 |  |
| CCCS(=O)(=O)Nc1nc(-c2cc(-c3ccon3)n(Cc3ccccc3F)n2)ncc1F [Compound I-611] | 0.101 to 1 |  |
| O=C1CCS(=O)(=O)N1c1nc(-c2cc(-c3ccon3)n(Cc3ccccc3F)n2)ncc1F [Compound I-612] | < 0.1 |  |
| O=S(=O)(Nc1nc(-c2cc(-c3ccon3)n(Cc3ccccc3F)n2)ncc1F)c1ccccc1 [Compound I-613] | 0.101 to 1 |  |
| COc1ccc(S(=O)(=O)Nc2nc(-c3cc(-c4ccon4)n(Cc4ccccc4F)n3)ncc2F)cc1OC [Compound I-614] | 0.101 to 1 |  |
| O=C1C(O)CCN1c1nc(-c2cc(-c3ccon3)n(Cc3ccccc3F)n2)ncc1F (stereo not drawn) [Compound I-615] | > 1 |  |
| CS(=O)(=O)CC(=O)Nc1nc(-c2cc(-c3ccon3)n(Cc3ccccc3F)n2)ncc1F [Compound I-616] | 0.101 to 1 |  |
| CCOC(=O)C1(C)C(=O)Nc2cnc(-c3cc(-c4ccon4)n(Cc4ccccc4F)n3)nc21 (stereo not drawn) [Compound I-617] | > 1 |  |
| CCOC(=O)C1(C)C(=O)Nc2nc(-c3cc(-c4ccon4)n(CCC(F)(F)F)n3)nc(N)c21 (stereo not drawn) [Compound I-618] | > 1 |  |
| CC1(C(N)=O)C(=O)Nc2nc(-c3cc(-c4ccon4)n(CCC(F)(F)F)n3)nc(N)c21 (stereo not drawn) [Compound I-619] | > 1 |  |
| COC(=O)Nc1c(N)nc(-c2cc(-c3ccon3)n(Cc3ccccc3F)n2)nc1N [Compound I-620] | > 1 |  |
| COC(=O)N(C)c1c(N)nc(-c2cc(-c3ccon3)n(Cc3ccccc3F)n2)nc1N [Compound I-621] | > 1 |  |
| C[C@@H](Nc1nc(-c2cc(-c3ccon3)n(Cc3ccccc3F)n2)ncc1F)c1nnc(C(F)(F)F)o1 [Compound I-622] | < 0.1 |  |
